The values that follow come from US20100086599A1, “ORAL MODIFIED RELEASE FORMULATIONS” (KAIROSMED GMBH, priority 2006, published 2010).

Entries after “also recorded” stand apart in the source; their conditions may differ. Read-outs that look alike come from different tables or passages of the source.

The conditions of data set [1]: low pH-values; cited from earlier work.
Another data set relates to SHBG or CBG serum levels. As to conditions: in vivo; cited from earlier work.
The conditions of data set [2]: cited from earlier work.
The next data set deals with T1, SHBG (Homo sapiens, UniProt P04278).
T1 sequence (P04278 30-402): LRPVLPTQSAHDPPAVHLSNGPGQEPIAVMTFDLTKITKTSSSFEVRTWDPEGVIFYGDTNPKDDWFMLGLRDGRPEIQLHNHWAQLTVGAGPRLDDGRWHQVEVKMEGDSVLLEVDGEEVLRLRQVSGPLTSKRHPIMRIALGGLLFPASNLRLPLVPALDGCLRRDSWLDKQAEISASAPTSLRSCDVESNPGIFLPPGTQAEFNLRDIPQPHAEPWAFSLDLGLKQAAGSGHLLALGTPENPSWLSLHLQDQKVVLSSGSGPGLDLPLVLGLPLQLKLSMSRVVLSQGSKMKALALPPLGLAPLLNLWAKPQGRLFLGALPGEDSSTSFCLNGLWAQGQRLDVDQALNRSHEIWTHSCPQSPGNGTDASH
Particulars: cited from earlier work.

Another data set addresses T2, AR (Homo sapiens, UniProt P10275).
T2 sequence (P10275 1-920): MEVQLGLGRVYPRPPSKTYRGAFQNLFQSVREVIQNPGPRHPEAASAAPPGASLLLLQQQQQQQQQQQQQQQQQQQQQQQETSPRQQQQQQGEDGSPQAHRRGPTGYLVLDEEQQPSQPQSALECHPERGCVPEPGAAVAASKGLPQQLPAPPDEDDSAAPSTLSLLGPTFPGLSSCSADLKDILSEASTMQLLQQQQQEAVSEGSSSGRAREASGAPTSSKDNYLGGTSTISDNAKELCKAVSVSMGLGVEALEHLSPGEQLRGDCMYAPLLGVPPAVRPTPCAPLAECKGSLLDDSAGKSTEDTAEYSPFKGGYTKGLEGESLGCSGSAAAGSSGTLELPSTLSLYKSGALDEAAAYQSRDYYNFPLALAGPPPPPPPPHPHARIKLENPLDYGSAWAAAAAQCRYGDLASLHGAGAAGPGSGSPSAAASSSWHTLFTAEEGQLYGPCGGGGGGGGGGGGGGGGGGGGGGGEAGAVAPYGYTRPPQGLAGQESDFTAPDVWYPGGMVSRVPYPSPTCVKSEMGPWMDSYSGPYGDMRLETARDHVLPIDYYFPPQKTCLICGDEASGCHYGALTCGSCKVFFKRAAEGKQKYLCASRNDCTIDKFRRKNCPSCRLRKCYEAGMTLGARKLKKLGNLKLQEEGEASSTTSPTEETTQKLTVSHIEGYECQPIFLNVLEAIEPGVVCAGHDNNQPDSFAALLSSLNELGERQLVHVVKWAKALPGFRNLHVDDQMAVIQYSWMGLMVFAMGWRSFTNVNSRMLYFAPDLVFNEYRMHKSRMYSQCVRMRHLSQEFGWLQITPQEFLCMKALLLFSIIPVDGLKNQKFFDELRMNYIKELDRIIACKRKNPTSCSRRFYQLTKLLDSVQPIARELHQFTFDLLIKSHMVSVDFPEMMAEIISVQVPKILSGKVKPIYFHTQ
As to conditions: cited from earlier work.

The next data set concerns CYP isoenzymes. As to the kind of experiment: metabolism by CYP isoenzymes. Type of data set: in vitro ADME.
The nature of data set [3]: clinical Phase Ia study: pharmacokinetics of oral 8-PN. It is filed as in vivo, women. The text has this: The pharmacokinetic profile of 8-PN is characterized by a complete oral absorption, a low degree of metabolization (less than 60% of dose) and a high pre-systemic elimination (first-liver-pass excretion, about 55% of dose). The high and unexpected pre-systemic elimination leads to a collection of substantial dose parts in the bile fluid from which these dose parts are secreted into the duodenum when gastric signaling occurs with a meal uptake. Respective dose parts are then absorbed again and reach systemic circulation. Data were taken from the clinical Phase la study and represent two volunteers of the lowest dose group (50 mg 8-Prenylnaringenin).
Taking the total area under the curve as a measure for 8-Prenyinaringenin systemic availability, the percentage of the area under the second peak (generated by reabsorption of the pre-systemically eliminated and then biliary secreted dose parts) can be used to estimate those dose parts which undergo pre-systemic elimination after oral dosing. On an average of six women investigated this figure is 54±20%.
Re-increases in drug serum levels show re-absorption of dose parts collected in the bile fluid and subsequently secreted triggered by lunch.

The subject of another data set is estrogen receptor. Particulars: cited from earlier work.
A short description of data set [4]: pH-dependent solubility and in vitro dissolution of 8-PN. Type of data set: physicochemical. The source says: The solid oral modified release formulations of this invention show a pH-independent drug release in vitro. This is important as the pH varies considerably in the gastro-intestinal tract and continuous release should be achieved independent of the pH. In contrast to C21-progestins (MPA, CPA, DRSP), however, the solubility of 8-PN is pH-dependent. […] The low acid solubility property of 8-Prenylnaringenin results in vitro in slow drug dissolution at pH 1, whereas the dissolution is fast at higher pH-values such as pH 6.8. The resulting dissolution profiles are different at different pH-values. This problem is solved by the solid oral modified release formulation of this invention. […]

A further data set concerns the target T3, GR (Homo sapiens, UniProt P04150).
T3 sequence (P04150 1-777): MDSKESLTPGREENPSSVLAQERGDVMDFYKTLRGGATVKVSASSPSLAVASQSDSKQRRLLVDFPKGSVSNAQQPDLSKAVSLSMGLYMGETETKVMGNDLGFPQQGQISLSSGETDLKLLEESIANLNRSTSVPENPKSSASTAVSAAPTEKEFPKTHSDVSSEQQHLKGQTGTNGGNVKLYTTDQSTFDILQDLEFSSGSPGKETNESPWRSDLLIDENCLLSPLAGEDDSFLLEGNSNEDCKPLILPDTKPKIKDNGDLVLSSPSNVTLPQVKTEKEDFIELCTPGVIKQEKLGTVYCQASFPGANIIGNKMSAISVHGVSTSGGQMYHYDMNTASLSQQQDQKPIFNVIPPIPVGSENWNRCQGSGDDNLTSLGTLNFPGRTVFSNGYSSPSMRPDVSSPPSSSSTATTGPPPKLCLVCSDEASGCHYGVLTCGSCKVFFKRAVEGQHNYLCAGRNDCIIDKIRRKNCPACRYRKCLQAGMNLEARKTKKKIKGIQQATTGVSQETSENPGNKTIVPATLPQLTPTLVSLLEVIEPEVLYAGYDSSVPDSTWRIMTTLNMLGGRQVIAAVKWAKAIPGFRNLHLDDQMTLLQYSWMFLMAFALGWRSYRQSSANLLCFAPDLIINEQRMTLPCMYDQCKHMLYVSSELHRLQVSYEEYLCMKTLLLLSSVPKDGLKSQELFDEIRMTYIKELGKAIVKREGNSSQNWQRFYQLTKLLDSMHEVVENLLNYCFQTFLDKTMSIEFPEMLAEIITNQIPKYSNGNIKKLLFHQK
As to conditions: cited from earlier work.

A further data set has as its target T4, PR (Homo sapiens, UniProt P06401).
T4 sequence (P06401 1-933): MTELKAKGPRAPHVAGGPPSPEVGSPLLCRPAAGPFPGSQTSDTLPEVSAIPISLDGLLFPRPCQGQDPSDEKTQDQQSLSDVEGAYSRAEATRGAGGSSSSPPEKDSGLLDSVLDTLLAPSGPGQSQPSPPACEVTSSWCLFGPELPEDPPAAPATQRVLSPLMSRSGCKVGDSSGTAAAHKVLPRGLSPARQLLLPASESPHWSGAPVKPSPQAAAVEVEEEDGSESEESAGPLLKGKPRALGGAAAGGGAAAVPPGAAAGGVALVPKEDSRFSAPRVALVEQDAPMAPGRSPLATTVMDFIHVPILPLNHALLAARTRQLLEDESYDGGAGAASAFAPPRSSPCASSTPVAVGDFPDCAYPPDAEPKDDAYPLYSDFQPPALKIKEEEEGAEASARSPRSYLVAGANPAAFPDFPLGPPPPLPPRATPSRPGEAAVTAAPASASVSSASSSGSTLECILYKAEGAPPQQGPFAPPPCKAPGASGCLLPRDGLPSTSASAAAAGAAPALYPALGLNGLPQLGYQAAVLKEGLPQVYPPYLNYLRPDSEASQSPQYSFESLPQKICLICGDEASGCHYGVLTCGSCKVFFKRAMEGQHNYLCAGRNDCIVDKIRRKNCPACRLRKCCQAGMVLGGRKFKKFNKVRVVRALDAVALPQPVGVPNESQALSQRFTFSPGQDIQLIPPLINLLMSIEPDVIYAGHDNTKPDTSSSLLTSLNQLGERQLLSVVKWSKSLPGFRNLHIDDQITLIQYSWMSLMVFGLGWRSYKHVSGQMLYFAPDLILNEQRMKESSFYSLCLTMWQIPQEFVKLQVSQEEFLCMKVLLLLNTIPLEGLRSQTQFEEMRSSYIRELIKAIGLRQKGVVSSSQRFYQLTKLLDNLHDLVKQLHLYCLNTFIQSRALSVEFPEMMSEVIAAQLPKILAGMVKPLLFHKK
Particulars: cited from earlier work.

For data set [5] the following is noted: cited from earlier work. This is another data set of the same source.
The mark [6] stands for this setting: 3 mg oral, daily repeated administration.
[7] abbreviates: single oral intake of 3 mg DRSP.

As to `C[C@]12CCC(=O)C=C1[C@@H]1C[C@@H]1[C@H]1[C@@H]3[C@@H]4C[C@@H]4[C@@]4(CCC(=O)O4)[C@@]3(C)CC[C@@H]12` [DRSP, Drospirenone], the “stability (opening of carbolactone ring to the inactive acid)” value in [1] is given as “sensitive to low pH-values”. Besides, the “suppression of EE induced SHBG or CBG serum levels” value in the data set on SHBG or CBG serum levels was “does not suppress”. Besides, in data set [2] (setting [6]), the AUC entry is reported as “about 920 ng×h/ml” and the maximum serum level result is on record as “about 80 ng/ml”. In addition, in data set [2] (in vivo), the “apparent volume of distribution” value is given as 4 L/kg and the disposition half-life is 31 h. In [2] (mainly by CYP3A4), the metabolism result is on record as “only slightly metabolized”. In addition, the oral absorption result in [2] (oral) is “complete”. For the same compound, in data set [2] (setting [7]), the AUC0-24h was 288 ng·h/mL, the maximum serum levels was 37 ng/mL and the “time at which maximum serum levels were reached” value is 1.7 h. Moreover, on SHBG, the “binding to SHBG” value was “does not bind”.
Regarding `CC(C)=CCc1c(O)cc(O)c2c1OC(c1ccc(O)cc1)CC2=O` (stereo not shown) [Example 8-PN, 5,7-Dihydroxy-2-(4-hydroxyphenyl)-8-(3-methylbut-2-enyl)-chroman-4-on], the “binding or activation of the AR” value on AR was “devoid of binding or activation”. The “metabolism by CYP isoenzymes” value in the data set with CYP isoenzymes was “surprisingly low extent of metabolism; also recorded: high metabolic stability”; with CYP isoenzymes (listed as 8-Prenylnaringenin), “high metabolic stability”. The degree of metabolization result in data set [3] (oral) is on record as “less than 60 % of dose”. In addition, the oral absorption entry in [3] (oral) is reported as “complete”. The “pre-systemic elimination (first-liver-pass excretion)” value in data set [3] (oral) was “about 55 % of dose”. The “CV of mean AUC” value in data set [3] (oral dose 250 mg) was 42%; in data set [3] (oral dose 750 mg), 29%. For the same compound, in [3] (oral, average of six women), the “percentage of the area under the second peak of total AUC (dose parts undergoing pre-systemic elimination)” value was found to be 54±20%. Besides, the anti-estogenic activity entry in the data set with estrogen receptor is listed as “without any anti-estogenic activity”. Besides, the solubility result in data set [4] (higher at higher pH-values, low at lower pH-values) was “pH-dependent”. For the same compound, the figures for the “drug dissolution in vitro” value in data set [4] (pH 1) and in data set [4] (pH 6.8) were “slow” and “fast”, respectively. Moreover, on GR, the “binding or activation of the GR” value is “devoid of binding or activation”. For the same compound, the “binding or activation of the PR” value at PR was “devoid of binding or activation”.
Turning to `C[C@]12CC[C@@H]3c4ccc(O)cc4CC[C@H]3[C@@H]1CC[C@@H]2O` [Example E2, 17β-estradiol], the “coefficient of variation (CV) of the mean AUC” value in data set [5] (oral 2 mg E2, N=14) was 127%; in [5] (oral 4 mg E2, N=14) it was 91%; in [5] (oral 8 mg E2, N=14), 70%. The oral bioavailability in data set [5] (oral) is on record as 1-3 % of dose.
